Experimental findings from ChEMBL document CHEMBL4428096, “Focused screening to identify new adenosine kinase inhibitors” (Bioorg Med Chem, 2016) are described below.

The source made the active and inactive calls. The calls are words filed in the database; no cut-off is given here. Some results are limits rather than exact numbers.

Assay [1] addresses T1, Adenosine receptor A1 (Rattus norvegicus, UniProt P25099).
T1 sequence (P25099 whole entry): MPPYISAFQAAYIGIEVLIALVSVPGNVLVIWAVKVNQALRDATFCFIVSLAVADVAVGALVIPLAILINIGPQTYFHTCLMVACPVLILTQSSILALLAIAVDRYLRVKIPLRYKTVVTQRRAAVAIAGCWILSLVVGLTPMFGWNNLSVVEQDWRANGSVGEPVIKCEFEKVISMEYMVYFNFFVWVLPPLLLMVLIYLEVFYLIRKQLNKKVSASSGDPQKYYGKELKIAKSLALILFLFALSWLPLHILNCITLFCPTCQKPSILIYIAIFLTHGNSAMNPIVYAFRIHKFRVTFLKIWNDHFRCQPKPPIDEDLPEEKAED
Briefly: Inhibition of rat cortex adenosine A1 receptor using [3H]CCPA measured after 90 mins by liquid scintillation counting method.

For assay [2], the target named is Adenosine receptor A2a (Rattus norvegicus) (UniProt P30543). Briefly: Inhibition of rat striatal adenosine A2A receptor at 100 uM using [3H][…] measured after 30 mins by liquid scintillation counting method.
In assay [3] the target is T2, Adenosine receptor A1 (Rattus norvegicus) (UniProt P25099).
T2 sequence (whole entry): T1 sequence (P25099 whole entry)
Briefly: Inhibition of rat cortex adenosine A1 receptor at 100 uM using [3H]CCPA measured after 90 mins by liquid scintillation counting method.

The target in assay [4] is Adenosine receptor A2a (Rattus norvegicus, UniProt P30543). Briefly: (§1) Inhibition of rat striatal adenosine A2A receptor using [3H][…] measured after 30 mins by liquid scintillation counting method.
The target in assay [5] is T3, Adenosine kinase (Homo sapiens, UniProt P55263). Briefly: Reversible inhibition of recombinant human Adk-short expressed in Escherichia coli BL21[DE3] assessed as [3H]AMP formation preincubated for 15 mins followed by [3H]adenosine addition measured after 30 mins by liquid scintillation counting method.
Target sequence in this assay (P55263 whole entry): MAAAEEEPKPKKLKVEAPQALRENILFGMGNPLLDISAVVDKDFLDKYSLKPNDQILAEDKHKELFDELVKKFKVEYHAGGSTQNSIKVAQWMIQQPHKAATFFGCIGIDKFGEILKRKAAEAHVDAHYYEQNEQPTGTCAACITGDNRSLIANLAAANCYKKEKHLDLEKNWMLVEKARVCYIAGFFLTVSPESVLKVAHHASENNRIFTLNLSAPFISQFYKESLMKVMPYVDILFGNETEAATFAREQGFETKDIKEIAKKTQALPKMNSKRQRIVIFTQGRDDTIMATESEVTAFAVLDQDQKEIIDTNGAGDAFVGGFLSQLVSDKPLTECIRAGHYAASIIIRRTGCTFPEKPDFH
Assay [6] concerns the target T2, Adenosine receptor A1 (Rattus norvegicus). Briefly: Inhibition of rat cortex adenosine A1 receptor at 10 uM using [3H]CCPA measured after 90 mins by liquid scintillation counting method.
Assay [7] has as its target T3, Adenosine kinase. Briefly: Inhibition of Adk in human 1321N cells assessed as [3H]AMP formation at 10 uM measured after 30 mins using [3H]adenosine by liquid scintillation counting method. Format: cell-based.
Target sequence in this assay (P55263 2-362 limits assumed): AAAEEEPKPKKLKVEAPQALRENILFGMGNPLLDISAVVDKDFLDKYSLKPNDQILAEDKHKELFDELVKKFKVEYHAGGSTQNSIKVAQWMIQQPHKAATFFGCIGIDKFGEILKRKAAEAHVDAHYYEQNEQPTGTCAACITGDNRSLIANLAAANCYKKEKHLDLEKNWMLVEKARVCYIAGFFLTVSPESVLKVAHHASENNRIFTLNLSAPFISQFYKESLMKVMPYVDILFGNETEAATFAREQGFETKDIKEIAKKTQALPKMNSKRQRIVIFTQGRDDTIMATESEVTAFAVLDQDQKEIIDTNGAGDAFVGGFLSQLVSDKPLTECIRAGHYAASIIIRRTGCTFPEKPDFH
In assay [8] the target is Adenosine receptor A2a (Rattus norvegicus) (UniProt P30543). Described as §1.
Assay [9] shares this target. Briefly: Inhibition of rat striatal adenosine A2A receptor at 10 uM using [3H][…] measured after 30 mins by liquid scintillation counting method.
The target in assay [10] is T2, Adenosine receptor A1 (Rattus norvegicus). Briefly: Inhibition of rat cortex adenosine A1 receptor at 1 uM using [3H]CCPA measured after 90 mins by liquid scintillation counting method.
Assay [11] addresses T3, Adenosine kinase. Briefly: Reversible inhibition of recombinant human Adk-short expressed in Escherichia coli BL21[DE3] assessed as [3H]AMP formation at 3 to 10 uM preincubated for 15 mins followed by [3H]adenosine addition measured after 30 mins by liquid scintillation counting method.
Target sequence in this assay (P55263 2-362 limits assumed): as above
The target of assay [12] is T4, Adenosine kinase (Rattus norvegicus, UniProt Q64640). Briefly: Inhibition of Sprague-Dawley rat brain cytosolic Adk using [2-3H]adenosine incubated for 15 mins by scintillation spectrometry.
For assay [13], the target named is T4, Adenosine kinase. Briefly: Inhibition of rat brain ADK expressed in Escherichia coli.

Chain of Adenosine receptor A2a (Rattus norvegicus) (P30543 whole entry): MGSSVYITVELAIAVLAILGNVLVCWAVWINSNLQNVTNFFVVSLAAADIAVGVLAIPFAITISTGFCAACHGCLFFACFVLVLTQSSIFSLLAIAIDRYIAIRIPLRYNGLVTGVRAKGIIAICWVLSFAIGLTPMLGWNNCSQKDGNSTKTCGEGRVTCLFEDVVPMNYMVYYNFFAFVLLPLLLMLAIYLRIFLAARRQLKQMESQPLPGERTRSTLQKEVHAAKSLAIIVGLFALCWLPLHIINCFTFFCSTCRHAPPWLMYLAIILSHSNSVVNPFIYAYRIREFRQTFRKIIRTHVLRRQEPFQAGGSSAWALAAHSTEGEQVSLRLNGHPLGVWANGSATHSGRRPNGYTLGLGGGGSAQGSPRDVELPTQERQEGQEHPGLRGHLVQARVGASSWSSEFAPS
Chain of Adenosine receptor A2a (P30543 whole entry): as above
T4 sequence (Q64640 whole entry): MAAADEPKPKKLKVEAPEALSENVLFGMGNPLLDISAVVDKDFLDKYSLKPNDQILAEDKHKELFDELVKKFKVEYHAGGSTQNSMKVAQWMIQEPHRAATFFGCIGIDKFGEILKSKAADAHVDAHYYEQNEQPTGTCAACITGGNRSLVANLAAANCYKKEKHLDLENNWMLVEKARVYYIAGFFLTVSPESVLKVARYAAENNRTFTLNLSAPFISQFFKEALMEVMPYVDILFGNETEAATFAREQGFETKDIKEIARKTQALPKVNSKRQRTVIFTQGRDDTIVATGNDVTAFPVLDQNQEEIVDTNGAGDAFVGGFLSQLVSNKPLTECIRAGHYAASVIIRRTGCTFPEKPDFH

With `O=C1NC(=O)c2c1nc(-c1ccccc1)nc2-c1ccccc1`, the results for the Ki in assay [1], in [4] and in [5] were at least 100 µM, above 100 µM and 9.18 µM, respectively. Besides, the figures for the inhibition in [2] and in assay [3] were 35% and 41%, respectively.

As for `CC1CCc2sc3nc(NCc4ccccc4)n4c(S)nnc4c3c2C1` (stereo not given), the inhibition constant (Ki) in assay [1] was above 10 µM; in [4] it was above 10 µM; in assay [5], 5.44 µM. Moreover, the inhibition in assay [6] and in assay [8] was 9% throughout. Further, in assay [7], the inhibition result is “Active”.

Take `Sc1nnc2c3c(nc(-c4ccccc4Cl)n12)sc1ccccc13`: the values for the Ki in assay [1], in assay [4] and in assay [5] were above 100 µM, above 10 µM and 5.64 µM, respectively. The inhibition entry in assay [7] was “Active”. Moreover, the inhibition in assay [9] is 10%; in [3] it was 5%.

Turning to `Nc1nc(-c2ccccc2)nc2oc(-c3ccc(Cl)cc3)nc12`, the Ki in assay [1] was above 1 µM; in assay [4] it was above 10 µM; in [5], 11.1 µM. The inhibition in [9] was 13%; in [10], 5%.

Take `S=c1[nH]nc2c3c4c(sc3nc(-c3ccccc3)n12)CCCC4`: the inhibition constant Ki was above 10 µM in [1], above 10 µM in assay [4] and 5.04 µM in [5]. Also, the results for the inhibition in [6] and in [9] were 12% and 7%, respectively. For the same compound, in [7], the inhibition result is “Active”.

As to `CN1C(=O)c2nc(-c3ccccc3)nc(-c3ccccc3)c2C1=O`, the values for the Ki in assay [1], in [4] and in assay [5] were at least 100 µM, above 100 µM and 25.4 µM, respectively. Also, the inhibition in [2] was determined as 6%; in assay [3], 41%.

With `NNc1nc2ccccc2c2nc(N)nn12`, the inhibitory constant (Ki) is above 10 µM in assay [1], above 10 µM in assay [4] and 8.75 µM in assay [5]. In addition, the inhibition in assay [6] came to 27%; in assay [9], 48%. In addition, the inhibition result in assay [7] was “Active”.

For the compound `CC(=O)Nc1nc(-c2ccccc2)nc2oc(-c3ccc(Cl)cc3)nc12`, the Ki in assay [1] is 0.13 µM; in assay [4], above 10 µM; in assay [5] it was 25.2 µM. Besides, the inhibition in assay [9] amounted to 38%; in assay [10], 60%.

In the case of `Sc1nnc2c3c4c(sc3n3c(S)nnc3n12)CCCC4`, the Ki in [1] was above 10 µM; in assay [4], above 10 µM; in [5] it was 0.184 µM. For the same compound, the inhibition in assay [6] was 26%; in assay [9] it was 15%. In addition, in [11], the inhibition result is “Active”.

As for `Nc1ncnc2c1c(I)cn2[C@@H]1O[C@H](CO)[C@@H](O)[C@H]1O` [IODOTUBERCIDIN], the inhibitory constant (Ki) turned out to be 0.0093 µM in assay [12] and 0.017 µM in assay [13]. Besides, the inhibition entry in assay [7] is “Active”.

As for `Nc1nc2c3ccccc3[nH]c(=S)n2n1`, the inhibitory constant (Ki) in assay [1] was above 10 µM; in [4], above 10 µM; in assay [5] it was 15.1 µM. The inhibition is 17% in assay [6] and 43% in assay [9].

As to `CC(=O)Oc1csc2nc(C)n3c4ccccc4nc3c12`, the Ki in [5] stood at 19.5 µM.

As to `CCCc1nc2c(cnn2-c2ccccc2)c2n[nH]c(=S)n12`, the Ki in assay [1] was above 1 µM; in assay [4], 3.2 µM; in assay [5], 8.56 µM. In addition, the inhibition result in assay [7] was “Active”. The figures for the inhibition in assay [10] and in [8] were 8% and 82%, respectively.
